Active and inactive are the calls of the source.
How the values were obtained:
[1] = tested on: H9c2; assay: cells; format: functional, cell-based; details: Rattus norvegicus, H9c2, Myocardium;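 further: confirmatory concentration-response retest of ultra-high-throughput screening hits for modulation of myocardial damage; cell death induced by hydrogen peroxide oxidative stress; compound pretreatment for 60 min then peroxide exposure for 2 h; potency is for protecting the cells against peroxide damage rather than for killing them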
[2] = molecular target: T1, Endoribonuclease toxin MazF (Escherichia coli K-12, UniProt P0AE70); assay: activation of MazEF endoribonuclease cleavage – biochemical, fluorescence, single-stranded RNA substrate, uHTS hits, dose response (AID 588481); format: functional
T1 sequence (P0AE70 whole entry): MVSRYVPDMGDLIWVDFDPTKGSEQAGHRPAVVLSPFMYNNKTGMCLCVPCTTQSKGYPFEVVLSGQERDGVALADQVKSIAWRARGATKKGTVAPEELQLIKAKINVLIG

[3] = molecular target: T1, Endoribonuclease toxin MazF; assay: substrate-only fluorescence increase artefacts – biochemical, single-stranded RNase substrate, counter-screen for MazEF activator project, dose response (AID 588502); format: functional
[4] = molecular target: T2, Protein RecA (Mycobacterium tuberculosis, UniProt P9WHJ3); assay: Fluorescence Cell-Free Homogeneous Dose Retest to Identify Inhibitors of RecA-Intein Splicing Activity. [Related pubchem assays (depositor defined):AID2097, AID2223, AID489010, AID492950]; format: functional
T2 sequence (P9WHJ3 whole entry): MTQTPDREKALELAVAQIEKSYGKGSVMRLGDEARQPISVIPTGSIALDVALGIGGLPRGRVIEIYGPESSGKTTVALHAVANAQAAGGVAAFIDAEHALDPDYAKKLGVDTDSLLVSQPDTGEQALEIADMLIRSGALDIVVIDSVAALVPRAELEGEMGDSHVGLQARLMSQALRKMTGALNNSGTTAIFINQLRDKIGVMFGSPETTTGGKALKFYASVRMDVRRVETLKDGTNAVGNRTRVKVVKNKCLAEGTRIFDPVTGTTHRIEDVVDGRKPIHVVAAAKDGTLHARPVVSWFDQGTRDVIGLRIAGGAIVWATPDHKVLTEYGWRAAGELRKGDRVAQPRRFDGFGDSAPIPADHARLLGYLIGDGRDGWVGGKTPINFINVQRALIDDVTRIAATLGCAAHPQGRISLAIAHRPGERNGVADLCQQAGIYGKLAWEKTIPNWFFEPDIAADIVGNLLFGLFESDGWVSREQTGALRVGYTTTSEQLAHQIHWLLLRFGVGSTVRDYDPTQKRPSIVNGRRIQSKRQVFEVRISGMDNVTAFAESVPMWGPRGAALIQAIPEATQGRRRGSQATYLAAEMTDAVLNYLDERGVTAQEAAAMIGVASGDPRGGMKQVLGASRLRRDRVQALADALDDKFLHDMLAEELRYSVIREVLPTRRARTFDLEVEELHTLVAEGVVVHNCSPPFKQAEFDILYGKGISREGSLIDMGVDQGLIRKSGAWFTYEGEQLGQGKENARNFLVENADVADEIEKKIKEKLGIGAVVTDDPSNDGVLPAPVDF

[5] = molecular target: T3, Replicative DNA helicase DnaB (Mycobacterium tuberculosis, UniProt P9WMR3); assay: DnaB intein splicing inhibitors, dose response, biochemical, cell-free fluorescence (AID 449749); format: functional
T3 sequence (P9WMR3 whole entry): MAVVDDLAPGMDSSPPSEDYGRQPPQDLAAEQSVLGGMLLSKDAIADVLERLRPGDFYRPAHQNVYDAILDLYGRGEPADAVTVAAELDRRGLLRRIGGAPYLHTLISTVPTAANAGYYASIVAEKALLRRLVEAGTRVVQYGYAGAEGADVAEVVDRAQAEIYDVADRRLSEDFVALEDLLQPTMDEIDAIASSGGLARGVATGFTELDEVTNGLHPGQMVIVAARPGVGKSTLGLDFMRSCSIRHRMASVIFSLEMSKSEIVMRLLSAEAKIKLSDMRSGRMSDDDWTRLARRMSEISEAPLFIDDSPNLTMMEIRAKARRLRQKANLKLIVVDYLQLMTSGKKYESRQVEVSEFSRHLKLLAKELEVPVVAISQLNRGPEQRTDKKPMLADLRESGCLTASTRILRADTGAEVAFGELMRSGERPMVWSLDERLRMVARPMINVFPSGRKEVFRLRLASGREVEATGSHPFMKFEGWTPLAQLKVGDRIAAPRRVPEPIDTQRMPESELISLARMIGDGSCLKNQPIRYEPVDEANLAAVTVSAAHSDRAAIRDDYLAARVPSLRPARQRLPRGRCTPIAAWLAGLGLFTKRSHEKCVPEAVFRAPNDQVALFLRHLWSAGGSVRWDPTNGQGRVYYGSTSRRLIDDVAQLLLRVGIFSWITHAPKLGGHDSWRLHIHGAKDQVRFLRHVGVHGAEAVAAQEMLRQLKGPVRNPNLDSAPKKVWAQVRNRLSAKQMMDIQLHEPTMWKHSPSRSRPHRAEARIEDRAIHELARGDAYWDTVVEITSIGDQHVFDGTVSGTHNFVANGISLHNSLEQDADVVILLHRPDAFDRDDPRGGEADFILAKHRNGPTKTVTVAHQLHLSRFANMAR

[6] = molecular target: Eukaryotic translation initiation factor 4E (Mus musculus, UniProt P63073); assay: blockers of eIF4G binding by eIF4E – biochemical, TR-FRET, dose response (AID 855); format: functional;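 further: potency for disrupting eIF4E binding to eIF4GI seen as loss of FRET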
Sequence of Eukaryotic translation initiation factor 4E (P63073 whole entry): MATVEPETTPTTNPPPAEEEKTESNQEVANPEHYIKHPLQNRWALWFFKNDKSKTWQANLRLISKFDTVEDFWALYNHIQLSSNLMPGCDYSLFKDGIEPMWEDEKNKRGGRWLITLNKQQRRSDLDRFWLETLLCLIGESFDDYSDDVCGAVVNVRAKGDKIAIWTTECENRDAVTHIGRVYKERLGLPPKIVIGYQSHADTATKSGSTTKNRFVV

[7] = molecular target: Induced myeloid leukemia cell differentiation protein Mcl-1 (Homo sapiens, UniProt Q07820); format: functional
Sequence of Induced myeloid leukemia cell differentiation protein Mcl-1 (Q07820 whole entry): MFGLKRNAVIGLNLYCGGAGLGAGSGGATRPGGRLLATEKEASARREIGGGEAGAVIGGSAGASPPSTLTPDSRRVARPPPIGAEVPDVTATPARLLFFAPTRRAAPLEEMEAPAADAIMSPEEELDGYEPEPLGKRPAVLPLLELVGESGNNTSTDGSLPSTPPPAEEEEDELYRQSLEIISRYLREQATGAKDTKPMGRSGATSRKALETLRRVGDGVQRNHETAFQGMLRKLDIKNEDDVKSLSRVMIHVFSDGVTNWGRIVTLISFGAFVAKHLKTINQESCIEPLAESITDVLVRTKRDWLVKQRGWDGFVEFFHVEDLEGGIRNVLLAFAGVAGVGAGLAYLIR

[8] = viability of uninfected HEp-2 cells – cell-based, HTS, cytotoxicity control for RSV inhibitor project, dose response (AID 2410); format: functional; details: human respiratory syncytial virus
[9] = molecular target: T4, Streptokinase A (Streptococcus pyogenes serotype M1, UniProt P10520); assay: viability-normalized secreted streptokinase activity reduction – plasminogen activation absorbance, OD405, dose response (AID 1914); format: functional, Streptococcus pyogenes M1 GAS;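 further: secreted streptokinase activity via plasminogen activation per viability signal from cell pellet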
T4 sequence (P10520 whole entry): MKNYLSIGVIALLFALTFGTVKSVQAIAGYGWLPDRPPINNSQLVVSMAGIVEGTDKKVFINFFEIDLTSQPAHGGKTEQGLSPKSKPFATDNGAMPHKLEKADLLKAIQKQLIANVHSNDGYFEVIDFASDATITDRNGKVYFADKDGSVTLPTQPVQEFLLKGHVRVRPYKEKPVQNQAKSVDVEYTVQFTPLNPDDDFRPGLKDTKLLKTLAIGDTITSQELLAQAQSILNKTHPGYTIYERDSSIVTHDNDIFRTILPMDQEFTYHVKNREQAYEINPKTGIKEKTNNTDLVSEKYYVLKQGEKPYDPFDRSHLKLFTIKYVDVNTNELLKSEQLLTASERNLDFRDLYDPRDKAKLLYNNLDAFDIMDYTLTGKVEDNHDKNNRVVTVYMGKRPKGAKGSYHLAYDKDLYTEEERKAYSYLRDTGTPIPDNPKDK

[10] = molecular target: T5, Rac GTPase-activating protein 1 (Homo sapiens, UniProt Q9H0H5); assay: blockers of MgcRacGAP-driven Rac1 GTP hydrolysis – biochemical, ADP Hunter fluorescence, primary and confirmatory, confirmation (AID 624330); format: functional
T5 sequence (Q9H0H5 whole entry): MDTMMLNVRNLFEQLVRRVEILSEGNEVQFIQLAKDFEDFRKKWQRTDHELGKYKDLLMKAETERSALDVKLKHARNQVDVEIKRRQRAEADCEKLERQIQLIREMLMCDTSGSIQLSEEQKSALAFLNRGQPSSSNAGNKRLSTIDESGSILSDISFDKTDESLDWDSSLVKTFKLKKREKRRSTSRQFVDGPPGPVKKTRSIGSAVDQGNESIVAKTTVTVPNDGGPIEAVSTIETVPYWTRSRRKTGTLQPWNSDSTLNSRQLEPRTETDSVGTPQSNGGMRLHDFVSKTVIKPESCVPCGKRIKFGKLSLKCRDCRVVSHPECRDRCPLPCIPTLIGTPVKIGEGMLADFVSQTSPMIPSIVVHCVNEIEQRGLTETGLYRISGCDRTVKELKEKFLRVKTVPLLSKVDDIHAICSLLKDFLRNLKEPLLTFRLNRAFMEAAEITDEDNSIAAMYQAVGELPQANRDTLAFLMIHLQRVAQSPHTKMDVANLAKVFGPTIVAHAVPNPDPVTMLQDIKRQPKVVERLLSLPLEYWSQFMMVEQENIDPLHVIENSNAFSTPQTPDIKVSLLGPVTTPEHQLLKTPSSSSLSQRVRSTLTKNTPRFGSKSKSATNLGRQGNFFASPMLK

[11] = tested on: Streptococcus; assay: GAS UMAA2166 growth inhibition – luminescence, BacTiterGlo, counter-screen for streptokinase expression inhibitor project, dose response (AID 1915); format: functional, organism-based;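 further: potency for reduction of bacterial viability or growth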
[12] = molecular target: T6, Cytochrome P450 1A2 (Homo sapiens, UniProt P05177);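 further: PubChem cytochrome P450 panel assay, CYP1A2 panel member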
T6 sequence (P05177 whole entry): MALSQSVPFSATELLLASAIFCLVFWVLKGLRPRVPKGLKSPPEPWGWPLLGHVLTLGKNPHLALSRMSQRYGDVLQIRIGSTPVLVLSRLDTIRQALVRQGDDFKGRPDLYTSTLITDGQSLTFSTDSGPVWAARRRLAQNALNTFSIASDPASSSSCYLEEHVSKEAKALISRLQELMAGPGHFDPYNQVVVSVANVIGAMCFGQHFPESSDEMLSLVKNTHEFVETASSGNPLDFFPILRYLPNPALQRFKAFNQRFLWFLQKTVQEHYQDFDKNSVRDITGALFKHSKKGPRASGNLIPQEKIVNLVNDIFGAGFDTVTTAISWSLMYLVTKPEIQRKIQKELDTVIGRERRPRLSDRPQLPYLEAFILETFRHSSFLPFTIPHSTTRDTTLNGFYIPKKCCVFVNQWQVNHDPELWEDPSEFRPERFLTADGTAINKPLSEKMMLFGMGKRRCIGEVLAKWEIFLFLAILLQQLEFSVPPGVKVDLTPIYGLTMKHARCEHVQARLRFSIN

[13] = molecular target: T7, Corticotropin-releasing factor receptor 2/Corticotropin-releasing factor-binding protein (Homo sapiens, UniProt P24387+Q13324); assay: activators of CRF receptor 2 with binding protein – uHTS hits, confirmation (AID 602473); format: functional; details: read-out: EC50_Mean
T7 sequence (Q13324 whole entry): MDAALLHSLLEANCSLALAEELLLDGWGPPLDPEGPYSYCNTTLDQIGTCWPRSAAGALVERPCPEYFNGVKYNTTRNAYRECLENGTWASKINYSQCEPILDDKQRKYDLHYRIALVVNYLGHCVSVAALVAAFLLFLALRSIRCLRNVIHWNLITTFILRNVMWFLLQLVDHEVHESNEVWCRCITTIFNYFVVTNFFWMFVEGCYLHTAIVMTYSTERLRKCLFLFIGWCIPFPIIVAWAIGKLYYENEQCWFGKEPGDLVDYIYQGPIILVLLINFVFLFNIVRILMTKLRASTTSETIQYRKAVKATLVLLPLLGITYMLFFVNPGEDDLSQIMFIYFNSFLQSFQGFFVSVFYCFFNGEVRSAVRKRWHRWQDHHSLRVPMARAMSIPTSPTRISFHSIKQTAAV
T7 sequence (P24387 whole entry): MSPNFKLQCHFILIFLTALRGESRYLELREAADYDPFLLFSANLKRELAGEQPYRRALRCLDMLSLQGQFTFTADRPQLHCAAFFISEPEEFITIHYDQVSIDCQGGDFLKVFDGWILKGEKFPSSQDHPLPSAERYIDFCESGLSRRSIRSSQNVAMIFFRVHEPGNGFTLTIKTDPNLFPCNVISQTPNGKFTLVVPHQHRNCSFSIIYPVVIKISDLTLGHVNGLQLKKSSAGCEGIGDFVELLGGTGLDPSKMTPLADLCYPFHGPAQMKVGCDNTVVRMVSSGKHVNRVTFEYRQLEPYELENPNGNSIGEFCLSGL

O=c1cc(CSc2nc(O)c3ccccc3n2)c2ccc(O)cc2o1
IC50 [1]: > 79 µM (inactive)

CSc1nc(O)c2c3c(sc2n1)CCC3
IC50 [1]: > 79 µM (inactive)

CCN(CC)CCn1c(=O)n(-c2ccc(Cl)cc2)c(=O)c2c3c(sc21)CN(C)CC3
EC50 [2]: > 99 µM (inactive) | EC50 [3]: > 99 µM (inactive)

CCOc1ccc(S(=O)(=O)NCc2cccnc2)cc1C
EC50 [4]: > 380 µM (inactive) | AC50 [5]: > 380 µM (inactive)

CC(=O)OC1=C(C#N)Cn2ccc3cccc1c32
IC50 [6]: > 64 µM (inactive)

CN(C)c1ccc(NC(=O)c2ccc([N+](=O)[O-])cc2Cl)cc1
IC50 [7]: 1.11 µM (not active)

Cn1cccc1/C=C1\SC(=O)N(c2ccccc2)C1=O
EC50 [2]: > 99 µM (inactive) | EC50 [3]: 32 µM (inactive)

CCN1C(=S)SC(=O)C1=C1C=C(C)OC(C)=C1
EC50 [2]: > 99 µM (inactive) | EC50 [3]: > 99 µM (inactive)

N#C/C(=C\Nc1ccc2c(c1)OCCO2)c1nc2ccccc2[nH]1
CC50 [8]: 21.4 µM (active) | IC50 [1]: > 79 µM (inactive)

Cc1ccc(S[C@@H](CCN2CC[C@H](C)CCC2=O)c2ccccc2)cc1
EC50 [4]: 17.6 µM (active) | AC50 [5]: 5.34 µM (active)

Nc1ccc2[nH]c(-c3ccc(Cl)cc3)nc2c1
EC50 [9]: > 150 µM (not active) | IC50 [7]: 8.16 µM (not active) | IC50 [10]: 37.8 µM (active) | EC50 [11]: > 150 µM (not active)

CC1(C)CC2=Nc3nn(-c4ccccc4)c(O)c3C(c3ccc4c(c3)OCO4)C2=C(O)C1 (configuration not stated)
EC50 [4]: 24 µM (active) | AC50 [5]: 66.1 µM (active)

CC(NC(=O)c1cc2c(=O)n(C)c3ccccc3c2n1C)c1ccc2c(c1)OCCO2 (configuration not stated)
IC50 [1]: > 79 µM (inactive)

Cc1ccc(NS(=O)(=O)c2cc(-c3nnc(O)c4ccccc34)ccc2C)cc1
IC50 [1]: 14.7 µM (active)

CC(NC(=O)c1ccc(Cn2cc([N+](=O)[O-])cn2)o1)c1ccccc1 (configuration not stated)
IC50 [6]: > 64 µM (inactive) | AC50 [12]: 17.8 µM (inconclusive)

O=C(CCc1nc(O)c2ccccc2n1)OCc1nnc(-c2ccccc2)o1
IC50 [1]: 13 µM (active)

Cc1ccc([N+](=O)[O-])cc1-c1ccc2cccc(C)c2n1
IC50 [6]: > 64 µM (inactive)

CC(C)(C)OC(=O)NCc1ccc(NC(=O)c2[nH]cnc2C(=O)NCCCCCCNC(=O)c2nc[nH]c2C(=O)Nc2ccc(CNC(=O)OC(C)(C)C)cc2)cc1
IC50 [1]: > 79 µM (inactive)

Cc1cccc2cc(/C=N/NC(=O)c3ccccc3O)c(Cl)nc12
EC50 [13]: > 53 µM (inactive) | IC50 [7]: 5.52 µM (active)

CCN1C(=O)[C@H]2[C@@H](c3ccc(-c4ccc(C(C)=O)cc4)cc3)N[C@@](C)(C(=O)OC)[C@H]2C1=O
IC50 [1]: > 79 µM (inactive)

Reference: ChEMBL document CHEMBL1201862, “PubChem BioAssay data set” (2004)
